From patent US20240293418A1, “COMBINATION THERAPY FOR TREATING CANCER” (Epizyme, Inc., priority 2016, published 2024)
Where two headings read alike, the source gives them in different places.

Legend:
U266 = assay: 7 day pretreatment + 4-day co-treatment combination model (Cell Titer Glo); details: for IC50: read-out: 4-day IC50
From the text: (§1) Assay plates were developed for endpoint analysis using Cell Titer Glo to measure ATP content, which was used as an indicator of cell viability. DMSO concentration was kept constant throughout the assay at less than 0.2% v/v.
(§2) Cell lines: The cell lines MI1.S and U266B1 were obtained from American Type Culture Collection (ATCC; Rockville, MD). The cell lines LP-1, L-363 were obtained from Deutsche Sammlung von Mikroorganismen and Zellkulturen (DSMZ; Braunschweig, Germany) and the cell line KMS-28BM was obtained from Japanese Collection of Research Bioresources Cell Bank (JCRB, Osaka Japan). All cells were maintained as instructed by the supplier and cultures were maintained at 37° C. in a humidified atmosphere and 5% CO2.
(§3) Loewe volumes greater than 1 denoted synergy and volumes <−1 denoted antagonism.

LP-1 [1] = assay: as above; details: for IC50: read-out: 4-day IC50
From the text: as §1, §2, §3

KMS-28-BM = assay: as above; details: for IC50: read-out: 4-day IC50
Method: as §1
(§4) All cells were maintained as instructed by the supplier and cultures were maintained at 37° C. in a humidified atmosphere and 5% CO2.
as §3

L-363 = assay: as above; details: for IC50: read-out: 4-day IC50
From the text: as §1, §2, §3

MM1.S [2] = assay: as above; details: read-out: 4-day IC50
From the text: as §1, §2, §3

MM1.S [3] = assay: 7-day co-treatment combination model (Cell Titer Glo); details: second agent + tazemetostat, 7 day co-treatment
Method: as §1
(§5) Cell lines: The cell lines MI1.S and U266B1 were obtained from American Type Culture Collection (ATCC; Rockville, MD). […] All cells were maintained as instructed by the supplier and cultures were maintained at 37° C. in a humidified atmosphere and 5% CO2.
as §3

RPMI-8226 = assay: as above; details: second agent + tazemetostat, 7 day co-treatment
Method: as §1, §5, §3

MOLP-8 [4] = assay: 7 day pretreatment + 4-day co-treatment combination model (Cell Titer Glo); details: second agent + tazemetostat, MOLP-8 t(11;14)
Method: as §1, §4, §3

Jeko-1 [5] = assay: mantle cell lymphoma 7 day co-treatment model; type: cell-based; details: for Best CI / Bliss Volume / HSA Volume / Loewe Volume / Synergy Score: second agent + tazemetostat, 7 day co-treatment; for IC50: second agent alone, 7 day co-treatment model
Granta-519 [6] = assay: mantle cell lymphoma 7 day pretreatment + 4-day co-treatment model (Cell Titer Glo)
From the text: (§6) Cells were then co-treated in triplicate with a second compound, 3-fold serially diluted for additional 4 days. After this time, plates were developed for endpoint analysis using Cell Titer Glo to measure ATP content, which is used as an indicator of cell viability.
(§7) A Loewe volume greater than 1 denoted synergy. A Loewe volume between −1 and 1 denoted additivity, and a negative Loewe volume of less than −1, denoted antagonism.

Maver-1 = assay: as above
From the text: as §6, §7

Jeko-1 [7] = assay: as above; details: for IC50: Homo sapiens, JeKo-1, 96 h, read-out: Second agent IC50; for Bliss Volume / HSA Volume / Loewe Volume / Synergy Score: second agent + tazemetostat, 7 day pretreatment + 4-day co-treatment, Jeko-1
From the text: as §6, §7

Granta-519 [8] = assay: mantle cell lymphoma 7 day co-treatment model; type: cell-based; details: for IC50: Homo sapiens, 168 h, second agent alone, 7 day co-treatment model; for Best CI / Bliss Volume / HSA Volume / Loewe Volume / Synergy Score: second agent + tazemetostat, 7 day co-treatment
MOLP-8 [9] = assay: 7-day co-treatment combination model (Cell Titer Glo); details: second agent + tazemetostat; 7-day co-treatment; MOLP-8 t(11;14)
Method: as §1, §4, §3

LP-1 [10] = assay: as above; details: second agent + tazemetostat; 7-day co-treatment; LP-1 t(4;14)
Method: as §1, §4, §3

[11] = second agent + tazemetostat, 7 day pretreatment + 4-day co-treatment, U266 t(11;14)
[12] = second agent + tazemetostat, 7 day pretreatment + 4-day co-treatment, LP-1 t(4;14)
[13] = second agent + tazemetostat, 7 day pretreatment + 4-day co-treatment, KMS-28-BM t(4;14)
[14] = second agent + tazemetostat, 7 day pretreatment + 4-day co-treatment, L-363 t(20;22)
[15] = second agent + tazemetostat, 7 day pretreatment + 4-day co-treatment, Granta-519
[16] = second agent + tazemetostat, 7 day pretreatment + 4-day co-treatment, Maver-1

Row | Compound | IC50 (U266; Homo sapiens, U-266, 96 h) [nM] | IC50 (MM1.S [2]; Homo sapiens, MM1.S, 96 h) [nM] | IC50 (LP-1 [1]; Homo sapiens, LP-1, 96 h) [nM] | IC50 (KMS-28-BM; KMS-28BM, 96 h) [nM] | IC50 (L-363; Homo sapiens, L-363, 96 h) [nM] | combinatorial effect by Loewe volumes (U266; [11]) | combinatorial effect by Loewe volumes (MOLP-8 [4]) | combinatorial effect by Loewe volumes (LP-1 [1]; [12]) | combinatorial effect by Loewe volumes (KMS-28-BM; [13]) | combinatorial effect by Loewe volumes (L-363; [14]) | other results
1 | Cn1c(CCCC(=O)O)nc2cc(N(CCCl)CCCl)ccc21 [Bendamustine, bendamustine] | > 10000 | > 10000 | > 10000 | > 10000 | > 10000 |  |  |  |  |  | 
2 | Cc1nc2cccc(N)c2c(=O)n1C1CCC(=O)NC1=O (centres unmarked) [CC-122] |  |  |  |  |  |  |  |  |  |  | Loewe volume (MM1.S [3]): 1.93; Loewe volume (RPMI-8226): 2.29
3 | CC(C)C[C@H](NC(=O)[C@H](CCc1ccccc1)NC(=O)CN1CCOCC1)C(=O)N[C@@H](Cc1ccccc1)C(=O)N[C@@H](CC(C)C)C(=O)[C@@]1(C)CO1 [Carfilzomib, carfilzomib] | 3 | 1.07 | 3.5 | 2 | 2 | S (Synergy) | A (Additive) | S (Synergy) | S (Synergy) | A (Additive) | 
4 | O=P1(N(CCCl)CCCl)NCCCO1 (centres unmarked) [Cyclophosphomide, cyclophosphamide] | > 10000 | 1180 | 6000 | 1480 | > 10000 |  |  |  |  |  | 
5 | COc1cccc2c1C(=O)c1c(O)c3c(c(O)c1C2=O)C[C@@](O)(C(=O)CO)C[C@@H]3O[C@H]1C[C@H](N)[C@H](O)[C@H](C)O1 [Doxorubicin, doxorubicin] | 50 | 8 | 203 | 87 | 10 | A (Additive) | A (Additive) | S (Synergy) | A (Additive) | A (Additive) | 
6 | CO[C@H]1C[C@@H]2CC[C@@H](C)[C@@](O)(O2)C(=O)C(=O)N2CCCC[C@H]2C(=O)O[C@H]([C@H](C)C[C@@H]2CC[C@@H](OCCO)[C@H](OC)C2)CC(=O)[C@H](C)/C=C(\C)[C@@H](O)[C@@H](OC)C(=O)[C@H](C)C[C@H](C)/C=C/C=C/C=C/1C [Everolimus, everolimus] |  |  |  |  |  |  |  |  |  |  | Best CI (Jeko-1 [5]): 1.0; Bliss Volume (Jeko-1 [5]): −0.060; HSA Volume (Jeko-1 [5]): 0.084; Loewe Volume (Jeko-1 [5]): 0.56; Synergy Score (Jeko-1 [5]): 0.4; IC50 (Jeko-1 [5]): 0.5 nM; Loewe volume (Granta-519 [6]; [15]): 5.1; Loewe volume (Maver-1; [16]): 6.5; IC50 (Jeko-1 [7]): 0.7 nM; Bliss Volume (Jeko-1 [7]): 1.42; HSA Volume (Jeko-1 [7]): 4.62; Loewe Volume (Jeko-1 [7]): 3.95; Synergy Score (Jeko-1 [7]): 4.03
7 | C=CC(=O)N1CCC[C@@H](n2nc(-c3ccc(Oc4ccccc4)cc3)c3c(N)ncnc32)C1 [Ibrutinib, ibrutinib] |  |  |  |  |  |  |  |  |  |  | IC50 (Granta-519 [8]): 856 nM; Best CI (Granta-519 [8]): 0.38; Bliss Volume (Granta-519 [8]): 0.894; HSA Volume (Granta-519 [8]): 3.86; Loewe Volume (Granta-519 [8]): 4.16; Synergy Score (Granta-519 [8]): 2.26; Loewe volume (Granta-519 [6]; [15]): 5.8; IC50 (Maver-1; Homo sapiens, Maver1, read-out: Second agent IC50): > 3300 nM; Best CI (Maver-1; [16]): 0.08; Bliss Volume (Maver-1; [16]): 0.804; HSA Volume (Maver-1; [16]): 3.90; Loewe Volume (Maver-1; [16]): 3.76; Loewe volume (Maver-1; [16]): 3.8; Synergy Score (Maver-1; [16]): 2.33
8 | CC(C)C[C@H](NC(=O)CNC(=O)c1cc(Cl)ccc1Cl)B(O)O [Ixazomib, ixazomib] |  |  |  |  |  |  | A (Additive) |  |  |  | combinatorial effect by Loewe volumes (U266): S (key: Antagonism; Synergy; Additive; X: Not Tested); IC50 (U266; single agent, U266 t(11; 14)): 1.5 nM; combinatorial effect by Loewe volumes (LP-1 [1]): S (key: Antagonism; Synergy; Additive; X: Not Tested); IC50 (LP-1 [1]; single agent, LP-1 t(4; 14)): 12 nM; combinatorial effect by Loewe volumes (KMS-28-BM): A (key: Antagonism; Synergy; Additive; X: Not Tested); IC50 (KMS-28-BM; single agent, KMS-28-BM t(4; 14)): 19 nM; combinatorial effect by Loewe volumes (L-363): A (key: Antagonism; Synergy; Additive; X: Not Tested); IC50 (L-363; single agent, L-363 t(20; 22)): 47 nM; IC50 (MM1.S [2]; single agent, MM1.S t(14; 16)): 12 nM
9 | N[C@@H](Cc1ccc(N(CCCl)CCCl)cc1)C(=O)O [Melphalan, melphalan] | > 10000 | 2940 | > 10000 | 1120 | > 10000 |  |  |  |  |  | 
10 | CC1(C)CCC(CN2CCN(c3ccc(C(=O)NS(=O)(=O)c4ccc(NCC5CCOCC5)c([N+](=O)[O-])c4)c(Oc4cnc5[nH]ccc5c4)c3)CC2)=C(c2ccc(Cl)cc2)C1 [Venetoclax, venetoclax] |  |  |  |  |  |  | A (Additive) | S (Synergy) | S (Synergy) |  | IC50 (Granta-519 [8]): 41 nM; Best CI (Granta-519 [8]): 0.43; Bliss Volume (Granta-519 [8]): 1.76; HSA Volume (Granta-519 [8]): 3.06; Loewe Volume (Granta-519 [8]): 2.73; Synergy Score (Granta-519 [8]): 3.82; combinatorial effect by Loewe volumes (MOLP-8 [9]): A (Additive); combinatorial effect by Loewe volumes (LP-1 [10]): S (Synergy); IC50 (Granta-519 [6]; Homo sapiens, Granta-519, read-out: Second agent IC50): 58 nM; Best CI (Granta-519 [6]; [15]): 0.09; Bliss Volume (Granta-519 [6]; [15]): 3.95; HSA Volume (Granta-519 [6]; [15]): 7.17; Loewe Volume (Granta-519 [6]; [15]): 6.72; Synergy Score (Granta-519 [6]; [15]): 7.23
11 | O=C(CCCCCCC(=O)Nc1ccccc1)NO [Vorinostat, vorinostat] |  |  | 669 |  |  | S (Synergy) | A (Additive) | S (Synergy) | S (Synergy) | A (Additive) | 

Now from value to molecule, other results behind:

Row | IC50 (U266; Homo sapiens, U-266, 96 h) [nM] | IC50 (MM1.S [2]; Homo sapiens, MM1.S, 96 h) [nM] | Compound | IC50 (LP-1 [1]; Homo sapiens, LP-1, 96 h) [nM] | IC50 (KMS-28-BM; KMS-28BM, 96 h) [nM] | IC50 (L-363; Homo sapiens, L-363, 96 h) [nM] | combinatorial effect by Loewe volumes (U266; [11]) | combinatorial effect by Loewe volumes (MOLP-8 [4]) | combinatorial effect by Loewe volumes (LP-1 [1]; [12]) | combinatorial effect by Loewe volumes (KMS-28-BM; [13]) | combinatorial effect by Loewe volumes (L-363; [14]) | other results
12 | 787 | 122 | COc1cc([C@@H]2c3cc4c(cc3[C@@H](O[C@@H]3O[C@@H]5CO[C@@H](C)O[C@H]5[C@H](O)[C@H]3O)[C@H]3COC(=O)[C@H]23)OCO4)cc(OC)c1O [Etoposide, etoposide] | 3000 | 478 | 140 |  |  |  |  |  | 
13 | > 10000 | 305 | Nc1cccc2c1CN(C1CCC(=O)NC1=O)C2=O (centres unmarked) [Lenalidomide, lenalidomide] | 973 | > 10000 | 379 | S (Synergy) | S (Synergy) | S (Synergy) | S (Synergy) | S (Synergy) | Best CI (Jeko-1 [5]): 0.35; Bliss Volume (Jeko-1 [5]): 1.86; HSA Volume (Jeko-1 [5]): 2.74; Loewe Volume (Jeko-1 [5]): 2.87; Synergy Score (Jeko-1 [5]): 3.68; IC50 (Jeko-1 [5]): 872 nM; IC50 (Jeko-1 [7]): 902 nM; Bliss Volume (Jeko-1 [7]): 2.67; HSA Volume (Jeko-1 [7]): 4.46; Loewe Volume (Jeko-1 [7]): 4.35; Synergy Score (Jeko-1 [7]): 4.01
14 | > 10000 | 158 | C[C@]12C=CC(=O)C=C1CC[C@@H]1[C@@H]2[C@@H](O)C[C@@]2(C)[C@H]1CC[C@]2(O)C(=O)CO [Prednisolone, prednisolone] | 36 | 36 | 100 | A (Additive) | S (Synergy) | S (Synergy) | S (Synergy) | A (Additive) | 
15 | > 10000 | > 10000 | O=C1CCC(N2C(=O)c3ccccc3C2=O)C(=O)N1 (centres unmarked) [Thalidomide, thalidomide] | > 10000 | > 10000 | > 10000 |  |  |  |  |  | 
16 | 0.5 | 1 | CC[C@]1(O)C[C@H]2CN(CCc3c([nH]c4ccccc34)[C@@](C(=O)OC)(c3cc4c(cc3OC)N(C=O)[C@H]3[C@@](O)(C(=O)OC)[C@H](OC(C)=O)[C@]5(CC)C=CCN6CC[C@]43[C@@H]65)C2)C1 [Vincristine, vincristine] | 2.3 | 1.15 | 1 |  |  |  |  |  | 
